Measurements taken from publication PMC5634495 (Scientific Reports, 2017).

What was measured:
α4β2 nAChR = α4β2 nAChR (Homo sapiens, UniProt P17787+P43681); assay: cell-based
[1] = system: nAChR-mediated pharyngeal pumping in C. elegans (nAChR EAT-2); parameters: species or system Caenorhabditis elegans; conditions: in vivo
[2] = system: locomotor activity of mice; conditions: mouse, in vivo
[3] = target: T1, acetylcholine binding protein derived from Lymnaea stagnalis (L-AChBP) (Lymnaea stagnalis, UniProt P58154 20-229); assay: SPR; conditions: both partners purified
T1 construct: also called Synthetic Lymnaea stagnalis AChBP
T1 sequence (P58154 20-229): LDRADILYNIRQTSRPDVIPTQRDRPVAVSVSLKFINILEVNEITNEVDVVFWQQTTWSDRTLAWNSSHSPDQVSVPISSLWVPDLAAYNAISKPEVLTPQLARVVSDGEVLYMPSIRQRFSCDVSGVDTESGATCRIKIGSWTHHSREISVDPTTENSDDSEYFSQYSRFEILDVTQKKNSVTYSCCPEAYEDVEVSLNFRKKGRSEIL

Sequence of α4β2 nAChR (P43681 29-627 limits assumed): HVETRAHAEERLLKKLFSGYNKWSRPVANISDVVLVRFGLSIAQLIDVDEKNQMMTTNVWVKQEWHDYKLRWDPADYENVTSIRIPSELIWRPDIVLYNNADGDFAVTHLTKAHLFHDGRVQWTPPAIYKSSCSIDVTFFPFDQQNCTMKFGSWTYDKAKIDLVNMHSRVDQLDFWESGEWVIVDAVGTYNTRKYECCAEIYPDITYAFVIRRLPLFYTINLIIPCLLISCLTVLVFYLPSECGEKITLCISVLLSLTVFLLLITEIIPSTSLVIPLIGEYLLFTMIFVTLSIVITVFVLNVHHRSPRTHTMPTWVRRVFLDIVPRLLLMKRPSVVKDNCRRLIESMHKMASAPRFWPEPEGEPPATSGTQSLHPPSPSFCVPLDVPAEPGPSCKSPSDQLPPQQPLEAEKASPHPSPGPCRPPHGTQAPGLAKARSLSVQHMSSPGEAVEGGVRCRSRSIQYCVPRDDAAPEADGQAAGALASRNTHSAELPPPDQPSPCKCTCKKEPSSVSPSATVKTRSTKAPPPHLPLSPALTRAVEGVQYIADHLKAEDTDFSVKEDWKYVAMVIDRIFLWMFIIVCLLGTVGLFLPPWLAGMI
Sequence of α4β2 nAChR (P17787 26-502 limits assumed): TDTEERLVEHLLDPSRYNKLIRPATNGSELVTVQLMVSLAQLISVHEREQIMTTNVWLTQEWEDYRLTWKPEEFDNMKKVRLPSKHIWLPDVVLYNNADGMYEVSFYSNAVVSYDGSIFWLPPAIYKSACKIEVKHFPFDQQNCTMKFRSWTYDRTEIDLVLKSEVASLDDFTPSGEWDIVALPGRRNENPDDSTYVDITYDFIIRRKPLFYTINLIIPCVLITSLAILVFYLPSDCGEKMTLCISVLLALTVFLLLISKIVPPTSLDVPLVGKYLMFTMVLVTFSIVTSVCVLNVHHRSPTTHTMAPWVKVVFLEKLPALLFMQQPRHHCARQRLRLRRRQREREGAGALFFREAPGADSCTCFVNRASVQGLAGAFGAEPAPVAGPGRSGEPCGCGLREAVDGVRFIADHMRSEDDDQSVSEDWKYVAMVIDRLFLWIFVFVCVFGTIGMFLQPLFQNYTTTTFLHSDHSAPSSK

| Molecule | IC50 (α4β2 nAChR) [µM] | average pharyngeal pumping frequency (in words) [1] | worms in which pharyngeal pumping was absent [1] | locomotor activity in novel-environment behaviour test (in words) [2] | binding result [3] |
| --- | --- | --- | --- | --- | --- |
| CC[C@H](C)[C@H](NC(=O)[C@H](CC(=O)O)NC(=O)[C@H](CS)NC(=O)[C@H](CO)NC(=O)[C@@H](NC(=O)CNC(=O)[C@H](CC(C)C)NC(=O)[C@H](CCCNC(=N)N)NC(=O)[C@H](C)NC(=O)[C@H](CC(N)=O)NC(=O)[C@H](CCC(=O)O)NC(=O)[C@@H]1CCCN1C(=O)[C@H](CCSC)NC(=O)[C@H](Cc1c[nH]c2ccccc12)NC(=O)[C@@H](NC(=O)[C@@H](NC(=O)[C@@H](N)Cc1ccc(O)cc1)[C@@H](C)O)[C@@H](C)CC)[C@@H](C)O)C(=O)N[C@@H](Cc1ccccc1)C(=O)N[C@H](C(=O)N[C@@H](CC(N)=O)C(=O)N[C@@H](CO)C(=O)N[C@@H](CCCNC(=N)N)C(=O)NCC(=O)N[C@@H](CCCCN)C(=O)N[C@@H](CCCNC(=N)N)C(=O)N[C@@H](C)C(=O)N[C@@H](CO)C(=O)N[C@@H](CCCCN)C(=O)NCC(=O)O)[C@@H](C)O [RV-183A] | 465 to 2620 | significantly reduced | six out of seven | increased locomotor activity |  |
| CC[C@H](C)[C@H](NC(=O)[C@H](CC(=O)O)NC(=O)[C@H](CS)NC(=O)[C@H](CO)NC(=O)[C@@H](NC(=O)CNC(=O)[C@H](CC(C)C)NC(=O)[C@H](CCCNC(=N)N)NC(=O)[C@@H]1CCCN1C(=O)[C@H](CC(N)=O)NC(=O)[C@H](CCC(=O)O)NC(=O)[C@@H]1CCCN1C(=O)[C@H](CCSC)NC(=O)[C@H](Cc1c[nH]c2ccccc12)NC(=O)[C@@H](NC(=O)[C@@H](NC(=O)[C@@H](N)Cc1ccc(O)cc1)[C@@H](C)O)[C@@H](C)CC)[C@@H](C)O)C(=O)N[C@@H](Cc1ccccc1)C(=O)N[C@H](C(=O)N[C@@H](CC(N)=O)C(=O)N[C@@H](CO)C(=O)N[C@@H](CCCNC(=N)N)C(=O)NCC(=O)N[C@@H](CCCCN)C(=O)N[C@@H](CCCNC(=N)N)C(=O)N[C@@H](C)C(=O)N[C@@H](CO)C(=O)N[C@@H](CCCCN)C(=O)NCC(=O)O)[C@@H](C)O [RV-183P] | 185 to 314 |  |  | increased locomotor activity |  |
| GSEPKWYRTKDRASPGSNFTITLMGRCNI [Scrambled, reference compound] |  |  |  | No difference |  |
| YTIWMPENLRLGTSCDIFTNSRGKRASKG [RV-183L] |  |  |  |  | binds |
| YTIWMPENPRLGTSCDIFTNSRGKRASKG [RV-183P] |  |  |  |  | binds |
